In patent publication US20070248672A1, “Indole and Azaindole Derivatives with Antitumor Action” (priority 2004, published 2007):
Where a name gives a salt, the structure may show the parent alone. Read-outs that look alike come from different tables or passages of the source.

Assays:
HT29/Mit cells [1] = experiment: Antiproliferative activity, 72 h treatment, SRB assay, HT29/Mit resistant line; type: cell-based, human
Description: (§1) HT29 and HT29/Mit (line obtained by prolonged exposure to mitoxantrone, and characterised by overexpression of BCRP, which confers cross resistance to topotecan, irinotecan and to its metabolite SN38): maintained in McCoy 5A medium+10% FCS.
(§2) 2.2 Scheme of the Antiproliferative Activity Experiment (Treatment Time: 72 Hours)
(§3) The cells (HT29 and HT29/Mit: 40,000 cells/ml, LoVo, LoVo/Dx and HCT116: 50,000 cells/ml) are seeded in 100 μl of the respective culture media in 96-well plates. 24 hours after seeding, an aliquot (10 μl) of drug at the various concentrations is added. In the samples in which the effect of the combination of two compounds is to be tested the inhibitor is added immediately before the cytotoxic. For each dose or combination of doses/drugs the effect of the treatment is determined in 4-8 replicates.
(§4) After 72 hours of treatment the antiproliferative effect is evaluated using the sulforhodamine B (SRB) assay: the cells are fixed by adding 25 μl of 50% TCA to each well and left for 1 hour at 4° C. After washing them with water and allowing them to dry, 100 μl of 0.4% SRB in 1% acetic acid are added and left for 30 minutes at room temperature. After 4 washes in 1% acetic acid, they are left to dry then the dye fixed by the proteins is dissolved under basic conditions with 100 μl 10 mM cold Tris and the solution is read using a spectrophotometer at 550 nm.
(§5) Percentage cell growth is calculated as the optical density of treated samples compared to the optical density of controls (untreated cells).

[2] = molecular target: Vacuolar ATPase in bovine chromaffin cells membranes (BCG) (Bos taurus, UniProt P23956+Q29466); experiment: Vacuolar ATPase inhibition in bovine chromaffin cells membranes (BCG); type: biochemical; settings: read-out: ATPase activity (IC50) BCG; bovine chromaffin cell membranes
Vacuolar ATPase in bovine chromaffin cells membranes (BCG), sequence (P23956 whole entry, looked up): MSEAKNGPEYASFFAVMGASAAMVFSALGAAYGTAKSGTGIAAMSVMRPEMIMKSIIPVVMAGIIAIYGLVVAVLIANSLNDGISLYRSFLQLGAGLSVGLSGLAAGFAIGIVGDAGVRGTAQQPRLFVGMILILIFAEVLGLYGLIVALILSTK
Vacuolar ATPase in bovine chromaffin cells membranes (BCG), sequence (Q29466 whole entry, looked up): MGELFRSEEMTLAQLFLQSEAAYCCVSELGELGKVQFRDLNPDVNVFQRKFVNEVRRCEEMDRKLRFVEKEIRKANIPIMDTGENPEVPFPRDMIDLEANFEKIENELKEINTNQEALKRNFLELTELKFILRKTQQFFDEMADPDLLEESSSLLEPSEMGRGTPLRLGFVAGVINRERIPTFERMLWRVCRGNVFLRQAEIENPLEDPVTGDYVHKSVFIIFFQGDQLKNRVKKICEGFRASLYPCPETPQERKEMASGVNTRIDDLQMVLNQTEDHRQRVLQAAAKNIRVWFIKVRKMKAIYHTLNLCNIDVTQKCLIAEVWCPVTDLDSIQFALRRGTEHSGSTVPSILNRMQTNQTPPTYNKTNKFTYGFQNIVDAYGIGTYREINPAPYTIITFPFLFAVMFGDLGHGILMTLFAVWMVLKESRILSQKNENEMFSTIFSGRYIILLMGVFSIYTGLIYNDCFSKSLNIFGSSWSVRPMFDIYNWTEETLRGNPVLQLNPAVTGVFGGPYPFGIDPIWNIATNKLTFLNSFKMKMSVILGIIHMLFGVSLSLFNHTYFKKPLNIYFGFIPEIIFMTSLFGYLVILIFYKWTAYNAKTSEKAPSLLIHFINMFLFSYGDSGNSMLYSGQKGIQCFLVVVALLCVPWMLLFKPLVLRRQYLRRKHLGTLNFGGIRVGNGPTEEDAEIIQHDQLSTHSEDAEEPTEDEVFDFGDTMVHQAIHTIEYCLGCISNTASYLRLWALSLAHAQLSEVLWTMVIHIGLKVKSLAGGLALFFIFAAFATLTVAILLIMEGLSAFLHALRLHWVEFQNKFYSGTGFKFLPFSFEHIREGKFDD
Description: (§6) Inhibition of bafilomycin sensitive ATPase activity is assayed by measuring the release of inorganic phosphate during 30 minutes of incubation, at 37° C., of the human osteoclastoma microsomal fraction in 96-well plates. The reaction medium contains 1 mM ATP, 10 mM Hepes-Tris buffer pH 8, 50 mM KCl, 5 μM valinomycin, 5 μM nigericin, 1 mM CDTA-Tris, 100 μM ammonium molybdate, 0.2 M sucrose and the microsomal fraction (20 μg protein/ml). The reaction is initiated by adding MgSO4 and terminated, after 30 minutes, by adding 4 volumes of the reagent malachite green, prepared according to Chan K., Anal. Biochem. 157, 375-380, 1986.
1.2 Determination of Vacuolar ATpase Inhibition in the Bovine Chromaffin Cells Membranes (BCG)
About 20 adrenal glands (Cidon S., J. Biol. Chem. 258, 2892-2898, 1983) are removed from healthy bovines; the medulla is quickly separated from the cortex, which is discarded. The medulla is homogenised at 4° C. with a suitable medium at pH 7.5, then filtered. The remaining solid material is further homogenised, filtered and recombined with the preceding filtrate, resuspended and centrifuged at 1000 g for 15 minutes; the supernatant obtained is centrifuged at 10000 g for 20 minutes. The resultant pellet is resuspended and stratified through a sucrose gradient formed of a lower part of 15 ml 1.5 M sucrose and an upper part of 10 ml 1.2 M sucrose. After overnight centrifugation at 4° C. with a SW28 rotor at 20000 rpm, the chromaffiln cells sediment into a pellet. This latter is resuspended, centrifuged at 3000 g for 10 minutes, and the supernatant obtained is centrifuged at 200000 g for 60 minutes. The pellet is then resuspended in 4 ml of a suitable medium containing 0.2 μg/ml pepstatin A and 0.4 μg/ml leupeptin and stored under liquid nitrogen.
The method for ATPase inhibition assay is the same as that followed for the osteoclastoma.

HT29 cells [3] = experiment: Antiproliferative activity, 72 h treatment, SRB assay, HT29; type: cell-based, human
Description: as §1, §2, §3, §4, §5

HT29 cells [4] = experiment: Co-treatment with topotecan, HT29 cells (Combination Index according to Kern); type: cell-based, human; settings: HT29 cells
Description: as §3, §4, §5
(§7) The Combination Index (C.I.) was determined according to Kern's method, 1988 (who continued from Drewinko B, 1976) (Kem D. H., Cancer Res. 48, 117-121, 1988; Drewinko B., Cancer Biochem. Biophys. 1, 187-195, 1976) by means of the following formula: […], where SFa and SFb are the fractions of cells surviving to treatment with compound a and b, respectively; SFab is the fraction surviving to the combination of compounds a and b. If the result is =1, the interaction between the two compounds is additive; if it is >1, the interaction between the two compounds is synergistic; if it is <1, the interaction between the two compounds is antagonistic.

HT29/Mit cells [5] = experiment: Co-treatment with topotecan, HT29/Mit resistant cells (Combination Index according to Kern); type: cell-based, human; settings: HT29/Mit cells
Description: as §3, §4, §5, §7

HepG2 cells = experiment: Antiproliferative activity, 48 h treatment, ATPlite luminescence assay, HepG2; type: cell-based, human; settings: HepG2, 48 h treatment, read-out: Antiproliferative activity (IC50 ± S.D.) HepG2 48 h treatment
Description: HepG2: maintained in EMEM medium+10% FCS.
2.3 Scheme of the Antiproliferative Activity Experiment (Treatment Time: 48 Hours)
The cells (concentration: 30,000 cells/ml) are seeded in 90 μl of the respective culture media in 96-well plates. 24 hours after seeding, an aliquot (10 μl) of the drug at the various concentrations is added (for each concentration there are 3 replicates). After 48 hours of treatment the antiproliferative effect is evaluated with a luminescence assay (Perkin Elmer Life Sciences ATPlite):
50 μl of a lysis solution are added to each well followed by an equal volume of a solution containing luciferase and D-luciferin. The ATP present in all the metabolically active cells brings about the transformation reaction of D-luciferin, catalysed by luciferase, to produce a luminescent signal as described in the following scheme: ATP+D-luciferin+O2→Oxyluciferin+AMP+PP1+CO2+Light
The luminescence produced (expressed in counts per second, CPS) is measured by means of a microplate scintillation analyzer (Perkin Elmer Life Sciences Top Count).
Percentage inhibition of luminescence in the treated cells compared to the control is calculated; concentration-response curves are then analysed using Grafit v.5.0.

[6] = molecular target: Vacuolar ATPase in human osteoclastoma (hOc) (Homo sapiens, UniProt P27449+Q13488); experiment: Vacuolar ATPase inhibition in human osteoclastoma (hOc) microsomal fraction; type: biochemical; settings: 30 min, 37° C.
Vacuolar ATPase in human osteoclastoma (hOc), sequence (P27449 whole entry, looked up): as the sequence (P23956 whole entry, looked up) above, with A4S, N6S, M51Q, G83D, R88K counted along it
Vacuolar ATPase in human osteoclastoma (hOc), sequence (Q13488 whole entry, looked up): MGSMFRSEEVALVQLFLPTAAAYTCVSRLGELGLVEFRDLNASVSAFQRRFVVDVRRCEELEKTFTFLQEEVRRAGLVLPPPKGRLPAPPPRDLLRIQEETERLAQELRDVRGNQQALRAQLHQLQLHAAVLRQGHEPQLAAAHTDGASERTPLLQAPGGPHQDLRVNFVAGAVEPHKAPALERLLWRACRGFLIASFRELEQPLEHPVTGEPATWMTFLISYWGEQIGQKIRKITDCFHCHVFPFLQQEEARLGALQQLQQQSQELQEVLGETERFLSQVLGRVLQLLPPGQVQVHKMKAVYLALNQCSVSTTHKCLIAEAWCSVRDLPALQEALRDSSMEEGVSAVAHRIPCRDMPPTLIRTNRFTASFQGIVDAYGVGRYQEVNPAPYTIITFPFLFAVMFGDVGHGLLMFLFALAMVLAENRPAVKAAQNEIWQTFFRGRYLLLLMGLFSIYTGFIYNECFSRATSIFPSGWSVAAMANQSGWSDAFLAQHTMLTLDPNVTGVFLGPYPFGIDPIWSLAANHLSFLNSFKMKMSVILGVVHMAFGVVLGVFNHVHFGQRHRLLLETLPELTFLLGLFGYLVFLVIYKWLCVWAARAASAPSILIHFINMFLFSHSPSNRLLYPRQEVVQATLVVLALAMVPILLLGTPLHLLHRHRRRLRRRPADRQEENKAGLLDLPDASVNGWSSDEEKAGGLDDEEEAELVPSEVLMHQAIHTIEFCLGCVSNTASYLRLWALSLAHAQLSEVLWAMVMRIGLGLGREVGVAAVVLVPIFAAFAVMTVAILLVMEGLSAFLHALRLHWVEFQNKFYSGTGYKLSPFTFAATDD
Description: 1.1 Determination of Vacuolar ATpase Inhibition in Human Osteoclastoma (hOc)
Osteoclast-like giant cells isolated from human osteoclastoma are homogenized using a glass-teflon homogeniser (1000 rpm) and the material is centrifuged for 20 minutes at 6000 g. The resultant pellet is resuspended and centrifuged at 100000 g for 60 minutes to sediment the microsomal fraction. The resultant pellet is resuspended in medium at pH 7.4 and stored under liquid nitrogen.
as §6

[7] = test system: HT29/Mit human colon carcinoma xenografts; experiment: HT29/Mit human colon carcinoma xenograft, antitumor activity; type: in vivo, athymic Swiss nude mice
Description: 1.1 Model of HT29/Mit human colon carcinoma xenografts-Antitumor activity Female athymic Swiss nude mice (8-10 weeks old) (Charles River, Calco, Italy) were used for the experiments. The animals were maintained at constant temperature and humidity, and were allowed to eat and drink freely. The experimental protocol was approved by the Ethics Committee for Animal Experimentation of the Istituto Nazionale Tumori of Milan. The antitumour effectiveness of the compounds of the invention under discussion was tested on athymic mouse models implanted with HT29 and/or HT29/Mit tumour cells: this latter variety is highly resistant to topotecan treatment. The tumour cells were implanted in vivo via subcutaneous injection of 10^7 cells taken from in vitro cultures. Randomized groups of five mice with bilateral subcutaneous tumours were used for the experiment. Topotecan or other known antitumour agents (dissolved in distilled water or an appropriate solvent) and the compounds of the invention (dissolved in Cremophor EL: ethanol: saline solution in the proportions 5:5:90, or in an appropriate solvent) were administered orally from the third day, alone or in combination, in agreement with a treatment scheme selected in an appropriate manner depending on the type of compound to be studied. The weight (or volume) of the tumour in treated mice compared to controls is represented graphically on the y-axis against time (x-axis).

[8] = Homo sapiens, HT-29, HT29/Mit, after 72 hours of treatment, range stated for the group, read-out: IC50 values in the resistant line
[9] = Homo sapiens, HT-29/Mit resistant line, 72 h treatment, read-out: Antiproliferative activity (IC50 ± S.D.) HT-29/Mit
[10] = Homo sapiens, HT-29, HT29, after 72 hours of treatment, range stated for the group, read-out: IC50 values in the sensitive line
[11] = Homo sapiens, HT-29, 72 h treatment, read-out: Antiproliferative activity (IC50 ± S.D.) HT-29 72 h treatment
[12] = HT-29, 72 h treatment, read-out: Antiproliferative activity (IC50 ± S.D.) HT-29 72 h treatment

Row | SMILES | IC50 (HT29/Mit cells [1]; [8]) [nM] | IC50 (HT29/Mit cells [1]; [9]) [nM] | IC50 [2] [nM] | IC50 (HT29 cells [3]; [10]) [nM] | IC50 (HT29 cells [3]; [11]) [nM] | other results
1 | CCOC(=O)c1[nH]c2cc(OC)c(OC)cc2c1-c1ccccc1 [Example 4, 5,6-Dimethoxy-3-phenyl-1H-indole-2-carboxylic acid ethyl ester] | 100 to 3000 | < 100 | 350 | 5000 to 42000 | 37300 | –
2 | COc1ccc(-c2c(-c3nnco3)[nH]c3cc(OC)c(OC)cc23)cc1 [Example 26, 5,6-Dimethoxy-3-(4-methoxyphenyl)-2-[1,3,4]oxadiazol-2-yl-1H-indole] | 100 to 3000 | 2700 | 710 | 5000 to 42000 | 40300 | effect in combination with topotecan (HT29 cells [4]): synergistic effects; effect in combination with topotecan (HT29/Mit cells [5]): synergistic effects
3 | COC(=O)c1[nH]c2cc(OC)c(OC)cc2c1-c1ccccc1 [Example 3, 5,6-Dimethoxy-3-phenyl-1H-indole-2-carboxylic acid methyl ester] | 100 to 3000 | 150 | 628 | 5000 to 42000 | 37300 | –
4 | COC(=O)c1[nH]c2cc(OC)c(OC)cc2c1-c1ccc(OC)c(OC)c1 [Example 2, -3-(3,4-Dimethoxyphenyl)-5,6-dimethoxy-1H-indole-2-carboxylic acid methyl ester] | – | 15200 ± 300 | – | – | 35200 ± 5200 | IC50 (HepG2 cells; Homo sapiens): 25500 ± 4500 nM
5 | COC(=O)c1c(-c2ccc(OC)cc2)c2cc(OC)c(OC)cc2n1CCO [Example 12, 1-(2-Hydroxyethyl)-5,6-dimethoxy-3-(4-methoxyphenyl)-1H-indole-2-carboxylic acid methyl ester] | 100 to 3000 | 660 ± 300 | 247 | 5000 to 42000 | 4600 | effect in combination with topotecan (HT29 cells [4]): synergistic effects; effect in combination with topotecan (HT29/Mit cells [5]): synergistic effects
6 | COc1ccc(-c2c(C#N)n(CCN(C)C)c3cc(OC)c(OC)cc23)cc1 [Example 18, 1-(2-Dimethylaminoethyl)-5,6-dimethoxy-3-(4-methoxyphenyl)-1H-indole-2-carbonitrile hydrochloride] | 100 to 3000 | 150 | 567 | 5000 to 42000 | 16700 | –
7 | CO/C1=C\C(C)=C\[C@@H](C)[C@@H](O)[C@@H](C)C/C(C)=C/C=C/[C@H](OC)[C@@H]([C@@H](C)[C@@H](O)[C@H](C)[C@@]2(O)C[C@@H](O)[C@H](C)[C@@H](C(C)C)O2)OC1=O [Bafilomycin A1, reference compound] | – | – | – | – | – | IC50 (HT29/Mit cells [1]; HT-29/Mit resistant line, 72 h treatment, read-out: Antiproliferative activity (IC50 ± S.D.) HT-29/Mit): 5 nM; IC50 (HepG2 cells): < 6 nM; IC50 [6]: 0.1 nM; IC50 (HT29 cells [3]; [12]): 3 ± 2 nM
8 | COc1ccc(-c2c3n(c4cc(OC)c(OC)cc24)CCNC3=O)cc1 [Example 27, 7,8-Dimethoxy-10-(4-methoxyphenyl)-3,4-dihydro-2H-pyrazino[1,2-a]indol-1-one] | – | 2900 | 248 | – | 5200 | –
9 | CC[C@@]1(O)C(=O)OCc2c1cc1n(c2=O)Cc2cc3c(CN(C)C)c(O)ccc3nc2-1 [Topotecan, reference compound] | – | 50600 | – | – | 70 ± 10 | tumor growth inhibition ([7]; 1 mg/kg p.o.): 62%; tumor growth inhibition ([7]; 2 mg/kg p.o.): 80%
10 | COc1ccc(-c2c3n(c4cc(OC)c(OC)cc24)CCNC3)cc1 [Example 28, 7,8-Dimethoxy-10-(4-methoxyphenyl)-1,2,3,4-tetrahydro-pyrazino[1,2-a]indole hydrochloride] | 100 to 3000 | 530 | 1270 | 5000 to 42000 | 37300 | –
11 | COc1ccc(-c2c(C#N)[nH]c3cc(OC)c(OC)cc23)cc1 [Example 17, 5,6-dimethoxy-3-(4-methoxyphenyl)-1H-indole-2-carbonitrile] | – | 2500 | 273 | – | 4900 ± 500 | –
12 | N.N.[Cl][Pt][Cl] [Cisplatin, reference compound] | – | – | – | – | – | IC50 (HepG2 cells): > 25000 nM; IC50 (HT29 cells [3]; [12]): 6800 nM
13 | COc1ccc(-c2c(-c3ncn[nH]3)[nH]c3cc(OC)c(OC)cc23)cc1 [Example 23, 5,6-Dimethoxy-3-(4-methoxyphenyl)-2-(2H-[1,2,4]triazol-3-yl)-1H-indole] | 100 to 3000 | 2300 | 470 | 5000 to 42000 | 41900 | effect in combination with topotecan (HT29 cells [4]): synergistic effects; effect in combination with topotecan (HT29/Mit cells [5]): synergistic effects
